According to the supplement of paper PMC11061612:

What was measured:
[1] = test system: K5 (Thyroid Gland Carcinoma); assay: combination Emax (second highest fraction inhibited in the dose matrix, 72 h); higher = more inhibition; extreme values may be limits of the assay
Procedure, shortened: (§1)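 Bliss excess equals the observed combination effect minus the expected value EA + EB − EA·EB, where EA and EB are the effects of each agent alone. Combination Emax is the second-highest inhibition within the matrix. Inhibition was scaled from CellTiter-Glo 2.0 luminescence, with 0 set by vehicle wells and 1 by blank wells, after 72 hours of two-drug dosing of cells plated in 1536-well plates.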

[2] = test system: SH-4 (Melanoma); assay: as above
Procedure, shortened: as §1

[3] = test system: OC-314 (Ovarian Carcinoma); assay: as above
Procedure, shortened: as §1

[4] = test system: RT-112 (Bladder Carcinoma); assay: as above
Procedure, shortened: as §1

[5] = test system: PCI-30 (Head and Neck Carcinoma); assay: as above
Procedure, shortened: as §1

[6] = test system: MDA-MB-468 (Breast Carcinoma); assay: as above
Procedure, shortened: as §1

[7] = test system: LU-139 (Small Cell Lung Carcinoma); assay: as above
Procedure, shortened: as §1

[8] = test system: SW1271 (Small Cell Lung Carcinoma); assay: as above
Procedure, shortened: as §1

[9] = test system: RPMI-6666 (Non-Cancerous); assay: as above
Procedure, shortened: as §1

[10] = test system: EN (Endometrial Carcinoma); assay: as above
Procedure, shortened: as §1

[11] = test system: K5 (Thyroid Gland Carcinoma); assay: Bliss excess, mean over the matrix (fraction); higher = more synergy
Procedure, shortened: as §1

[12] = test system: SU-DHL-6 (B-Cell Non-Hodgkin's Lymphoma); assay: as above
Procedure, shortened: as §1

[13] = test system: OC-314 (Ovarian Carcinoma); assay: as above
Procedure, shortened: as §1

[14] = test system: NCI-H2461 (Mesothelioma); assay: as above
Procedure, shortened: as §1

[15] = test system: RT-112 (Bladder Carcinoma); assay: as above
Procedure, shortened: as §1

[16] = test system: HDLM-2 (Hodgkin's Lymphoma); assay: as above
Procedure, shortened: as §1

[17] = test system: MDA-MB-468 (Breast Carcinoma); assay: as above
Procedure, shortened: as §1

[18] = test system: NCI-H69 (Small Cell Lung Carcinoma); assay: as above
Procedure, shortened: as §1

[19] = test system: EN (Endometrial Carcinoma); assay: as above
Procedure, shortened: as §1

[20] = test system: CAPAN-1 (Pancreatic Carcinoma); assay: as above
Procedure, shortened: as §1

SMILES | combination Emax [1] | combination Emax [2] | combination Emax [3] | combination Emax [4] | combination Emax [5] | combination Emax [6] | combination Emax [7] | combination Emax [8] | combination Emax [9] | combination Emax [10] | Bliss excess [11] | Bliss excess [12] | Bliss excess [13] | Bliss excess [14] | Bliss excess [15] | Bliss excess [16] | Bliss excess [17] | Bliss excess [18] | Bliss excess [19] | Bliss excess [20]
C[C@@H]1COCCN1c1cc(C2([S@](C)(=N)=O)CC2)nc(-c2ccnc3[nH]ccc23)n1 [AZD6738] + C1CC(C1)(C(=O)[O-])C(=O)[O-].N.N.[Pt+2] [Carboplatin] (first compound max 10 µM, 7x7, partner max 10 µM) | 0.517 | 0.277 | 0.814 | 0.679 | 0.45 | 0.583 | 0.258 | 0.356 | 0.7 | 0.537 | -0.0728 | -0.0174 | -0.03 | -0.05 | -0.0217 | 0.0001 | -0.0511 | -0.032 | -0.0335 | -0.0624
N#Cc1cnc(Nc2cc(NC[C@H]3CNCCO3)c(C(F)(F)F)cn2)cn1 [SRA737] + Nc1ccn([C@@H]2O[C@H](CO)[C@@H](O)C2(F)F)c(=O)n1 [Gemcitabine] (first compound max 10 µM, 7x7, partner max 0.3 µM) | 0.689 | 0.577 | 0.979 | 0.899 | 0.736 | 0.752 | 0.832 | 0.647 | 0.933 | 0.634 | 0.0428 | 0.101 | 0.108 | -0.0309 | 0.178 | 0.0526 | 0.0293 | -0.0077 | -0.0331 | -0.0582
C[C@@H](Oc1cc(-c2cnn(C3CCNCC3)c2)cnc1N)c1c(Cl)ccc(F)c1Cl [Crizotinib] + Cn1cnc2c(F)c(Nc3ccc(Br)cc3Cl)c(C(=O)NOCCO)cc21 [Selumetinib] (first compound max 10 µM, 7x7, partner max 10 µM) | 0.682 | 0.91 | 0.494 | 0.819 | 0.238 | 0.673 | 0.684 | 0.896 | 0.672 | 0.401 | -0.0788 | -0.0205 | -0.0354 | -0.0376 | -0.043 | -0.0399 | -0.0996 | -0.0607 | -0.0542 | -0.046
O=C(c1cc(Cc2n[nH]c(=O)c3ccccc23)ccc1F)N1CCN(C(=O)C2CC2)CC1 [Olaparib] + Cc1c2c(nn1C)CSCc1cc(n(C)n1)CSc1cc(c3ccccc3c1)OCCCc1c(C(=O)O)n(C)c3c-2c(Cl)ccc13 [AZD5991] (first compound max 10 µM, 7x7, partner max 1 µM) | 0.0887 | 0.155 | 0.191 | 0.672 | 0.103 | 0.42 | 0.132 | 0.131 | 0.794 | 0.476 | -0.0563 | 0.0065 | -0.0142 | -0.0502 | 0.0048 | -0.0194 | -0.0391 | 0.0008 | -0.016 | -0.0392
Cc1c2c(nn1C)CSCc1cc(n(C)n1)CSc1cc(c3ccccc3c1)OCCCc1c(C(=O)O)n(C)c3c-2c(Cl)ccc13 [AZD5991] + CS(=O)(=O)CCNCc1ccc(-c2ccc3ncnc(Nc4ccc(OCc5cccc(F)c5)c(Cl)c4)c3c2)o1 [Lapatinib] (first compound max 1 µM, 7x7, partner max 10 µM) | 0.237 | 0.197 | 0.506 | 0.827 | 0.257 | 0.851 | 0.201 | 0.424 | 0.555 | 0.519 | -0.0063 | 0.0085 | 0.0453 | -0.0273 | 0.0426 | 0.0262 | -0.0357 | -0.0745 | -0.0129 | -0.0147
N#Cc1cnc(Nc2cc(NC[C@H]3CNCCO3)c(C(F)(F)F)cn2)cn1 [SRA737] + CCc1c2c(nc3ccc(O)cc13)-c1cc3c(c(=O)n1C2)COC(=O)[C@]3(O)CC [SN-38] (first compound max 10 µM, 7x7, partner max 0.3 µM) | 0.512 | 0.518 | 0.994 | 0.95 | 0.843 | 0.791 | 0.747 | 0.608 | 0.915 | 0.678 | -0.043 | 0.0295 | -0.0056 | -0.0351 | 0.138 | -0.0382 | -0.0136 | 0.0781 | -0.0706 | -0.0974
O=C(c1cc(Cc2n[nH]c(=O)c3ccccc23)ccc1F)N1CCN(C(=O)C2CC2)CC1 [Olaparib] + COc1nnc2ccc(N3CCC(c4ccc(OCCN5CCN(C)C(=O)[C@H]5C)cc4)CC3)nn12 [AZD5153] (first compound max 10 µM, 7x7, partner max 1 µM) | 0.611 | 0.514 | 0.798 | 0.157 | 0.251 | 0.503 | 0.896 | 0.573 | 0.633 | 0.347 | -0.0392 | -0.0338 | -0.0341 | -0.118 | -0.0332 | -0.0334 | -0.0737 | 0.0144 | -0.0427 | -0.0573
C[C@@H](Nc1cc(F)cc(F)c1)c1cc(C(=O)N(C)C)cc2c(=O)cc(N3CCOCC3)oc12 [AZD8186] + CC(=O)c1c(C)c2cnc(Nc3ccc(N4CCNCC4)cn3)nc2n(C2CCCC2)c1=O [Palbociclib] (first compound max 10 µM, 7x7, partner max 10 µM) | 0.509 | 0.233 | 0.594 | 0.352 | 0.353 | 0.571 | 0.115 | 0.411 | 0.691 | 0.387 | -0.0142 | 0.0418 | 0.0774 | -0.0113 | 0.0396 | 0.0121 | -0.022 | 0.0121 | -0.0262 | -0.0559
Cc1c2c(nn1C)CSCc1cc(n(C)n1)CSc1cc(c3ccccc3c1)OCCCc1c(C(=O)O)n(C)c3c-2c(Cl)ccc13 [AZD5991] + CC(=O)O[C@H]1C(=O)[C@@]2(C)[C@H]([C@H](OC(=O)c3ccccc3)[C@]3(O)C[C@H](OC(=O)[C@H](O)[C@@H](NC(=O)c4ccccc4)c4ccccc4)C(C)=C1C3(C)C)[C@]1(OC(C)=O)CO[C@@H]1C[C@@H]2O [Paclitaxel] (first compound max 1 µM, 7x7, partner max 3 µM) | 0.846 | 0.472 | 0.995 | 1 | 0.394 | 0.79 | 0.649 | 0.472 | 0.979 | 0.878 | -0.0361 | 0.0125 | -0.0078 | -0.0417 | 0.0162 | 0.0128 | -0.051 | -0.0504 | 0.149 | -0.0006
CC1(C)CCC(CN2CCN(c3ccc(C(=O)NS(=O)(=O)c4ccc(NCC5CCOCC5)c([N+](=O)[O-])c4)c(Oc4cnc5[nH]ccc5c4)c3)CC2)=C(c2ccc(Cl)cc2)C1 [Venetoclax] + CS(=O)(=O)CCNCc1ccc(-c2ccc3ncnc(Nc4ccc(OCc5cccc(F)c5)c(Cl)c4)c3c2)o1 [Lapatinib] (first compound max 1 µM, 7x7, partner max 10 µM) | 0.187 | 0.0973 | 0.399 | 0.146 | 0.167 | 0.635 | 0.19 | 0.373 | 0.55 | 0.288 | -0.0404 | 0.0481 | 0.0051 | -0.04 | -0.0371 | 0.0315 | -0.141 | 0.0391 | -0.0492 | -0.0262
O=C(c1cc(Cc2n[nH]c(=O)c3ccccc23)ccc1F)N1CCN(C(=O)C2CC2)CC1 [Olaparib] + CN(CC[C@H](CSC1=CC=CC=C1)NC2=C(C=C(C=C2)S(=O)(=O)NC(=O)C3=CC=C(C=C3)N4CCC(CC4)[C@H](C5=CC=CC=C5C6=CC=C(C=C6)Cl)O)S(=O)(=O)C(F)(F)F)CCO [AZD4320] (first compound max 10 µM, 7x7, partner max 1 µM) | 0.199 | 0.162 | 0.262 | 0.153 | 0.188 | 0.684 | 0.958 | 0.21 | 0.94 | 0.297 | -0.0148 | 0.0091 | -0.0165 | -0.0534 | -0.0305 | -0.0141 | -0.043 | 0.0294 | -0.0184 | -0.0347
C=CCn1c(=O)c2cnc(Nc3ccc(N4CCN(C)CC4)cc3)nc2n1-c1cccc(C(C)(C)O)n1 [AZD1775] + Nc1ccn([C@@H]2O[C@H](CO)[C@@H](O)C2(F)F)c(=O)n1 [Gemcitabine] (first compound max 1 µM, partner max 0.3 µM) | 0.568 | 0.577 | 0.972 | 0.956 | 0.677 | 0.733 | 0.795 | 0.617 | 0.917 | 0.581 | -0.0194 | 0.0556 | 0.0576 | -0.0446 | 0.148 | -0.0627 | 0.0073 | -0.0754 | -0.0552 | -0.0588
CN(CCO)CC[C@H](CSc1ccccc1)Nc1ccc(S(=O)(=O)NC(=O)c2ccc(N3CCC([C@@H](O)c4ccccc4-c4ccc(Cl)cc4)CC3)cc2)cc1S(=O)(=O)C(F)(F)F [AZD4320] + C[C@@H](Nc1cc(F)cc(F)c1)c1cc(C(=O)N(C)C)cc2c(=O)cc(N3CCOCC3)oc12 [AZD8186] (first compound max 1 µM, 7x7, partner max 3 µM) | 0.619 | 0.308 | 0.433 | 0.435 | 0.321 | 0.789 | 0.943 | 0.649 | 0.996 | 0.354 | -0.0505 | 0.0068 | 0.0075 | -0.0052 | 0.0735 | 0.0434 | 0.0195 | -0.0208 | -0.0377 | -0.0107
